Experimental data: patent US7528226B2, “TGFβ1-inhibitor peptides” (Rojecto de Biomedicina Cima S.L., priority 1998, dated 2009)
No end group written: not given here.

What was measured:
[1] = tested on: experimental cirrhosis with CCl4; assay: Model of experimental cirrhosis induced with CCl4 in Wistar rats (collagen / fibrosis); type: in vivo, rat
Experimental: Male white rats (albino Wistar strain) from simultaneous litters (5 weeks±1.5 weeks) were used, in order to obtain a group that was homogeneous in age and initial weight. Throughout the experiments, the animals were kept in conditions of constant temperature (22° C.) with a 12-hour cycle of light and darkness. They had free access to water and food.
Hepatic cirrhosis (HC) was induced by inhalation of carbon tetrachloride for 11 weeks, twice per week (López Novoa J M et al. (1976) Patologia IX:223-240; Camps J. et al. (1987) Gastroenterology 93:498-505). Exposure to CCl4 was effected by bubbling compressed air, at a flow rate of 3 liters/min, through a gas wash-bottle. […] CCl4 was not administered during the fifth week, starting again at the sixth week with an exposure of 5 minutes. This exposure time was maintained until week 11. 400 mg/l of phenobarbital (Luminal®, Bayer, Leverkusen, Germany) was added to the drinking water, from one week before starting exposure to CCl4 and until the end of the experimental period. Before starting the treatment, one week was left, in which they were not administered CCl4. During treatment they were administered a weekly dose of CCl4, as recorded (FIG. 2).
The animals were divided into 4 groups before beginning the process of induction of hepatic cirrhosis. • Healthy controls (Co): Animals that were not subjected to the fibrosis process. • Treated healthy controls (Co+P144): Animals that were not subjected to the fibrosis process and that were administered the peptide P144 during the last 3 weeks (coinciding in time with the treatment of the group of rats Tto2). • Cirrhotic controls 1 (Ci1): Animals subjected to the process of induction of cirrhosis by inhalation of CCl4 twice per week. These animals were separated into 2 groups on reaching the fifth week: • Cirrhotic controls 1 (Ci1): Animals that continued to be subjected to the process of induction of fibrosis up to week 11, without being administered the peptide P144. They were administered saline serum on alternate days, throughout the induction process (weeks 5 to 11). • Treated cirrhotics 1 (Tto1): Animals that were administered the peptide P144 derived from the sequence of the type III receptor, on alternate days, during the process of induction of fibrosis, from week 5 to week 11. • Cirrhotic controls 2 (Ci2): Animals that continued to be subjected to the process of induction of fibrosis without receiving the peptide P144 or saline serum. This group was subdivided into another two on reaching week 11. • Cirrhotic controls 2 (Ci2): Cirrhotic animals that were not subjected to any type of treatment, kept as controls. […]

[2] = tested on: type I, II and III cell receptors of TGFβ1; assay: Affinity labelling: inhibition of binding of 125I-TGFβ1 to its cell receptors on MV-1-Lu cells; parameters: species or system human
Experimental: The MV-1-Lu cells were removed from the culture flasks incubating them at 37° C. for 10 minutes, with 10 ml of solution 1 (128 mM NaCl, 5 mM KCl, 25 mM 4-(2-hydroxyethyl)-1-piperazine ethanesulphonate at pH 7.5, 5 mM glucose and 1 mM EDTA). The cells thus removed were resuspended in solution 2 (128 Mm NaCl, 5 mM KCl, 50 mM 4-(2-hydroxyethyl)-1-piperazine ethanesulphonate at pH 7.5, 1.2 mM CaCl2, 1.2 mM MgSO4 and 5 mg/ml BSA) and were collected by centrifugation at 1000×g for 5 minutes. After centrifugation the cells were resuspended in solution 2 at a concentration of 10^6 cells/ml.
From this cell suspension, 0.5 ml aliquots were made in 24-well plates (Greiner GmbH, Frickenhausen, Germany), the peptides were added, in 50 μl of a 0.8 mg/ml solution, then this was incubated for 2 hours at 4° C. with stirring. Next, ^125I-TGFβ1 (2 μCi) was added to a final concentration of 277.2 pM (^125I-TGFβ1 human recombinant 800-2200 Ci/mmol, Amersham Life Science, Buckinghamshire, UK) and this was incubated for a further two hours at 4° C. with stirring.
After incubation, the cells were transferred to a centrifuge tube and were centrifuged cold at 12,000×g for 1 minute. […]

TSLDASIIWAMMQN [P144, ThrSerLeuAspAlaSerIleIleTrpAlaMetMetGlnAsn]
ratio of collagen to total protein, treated (Tto1) vs cirrhotic controls (Ci1) ([1]; protocol 1: 70 μg/animal on alternate days during cirrhosis induction, Fast Green/Direct Red, spectrophotometer): significant differences are observed (P<0.05) | area of fibrosis, treated (Tto1) vs cirrhotic controls (Ci1) ([1]; protocol 1: 70 μg/animal on alternate days during cirrhosis induction, image analysis, Sirius Red): also significant (P<0.001) | ratio of collagen to total protein, treated (Tto2) vs cirrhotic controls (Ci2) ([1]; protocol 2: 70 μg/animal on alternate days for 3 weeks once cirrhosis was established): not significant | area of fibrosis, treated (Tto2) vs cirrhotic controls (Ci2) ([1]; protocol 2: 70 μg/animal on alternate days for 3 weeks once cirrhosis was established, image analysis): not significant | inhibition of the binding of 125I-TGFβ1 to the cell receptors ([2]; preincubation with peptide at 10^6 times the molar concentration of 125I-TGFβ1): inhibition of the binding | concentration at which the peptide lost its activity ([2]; titration of the peptide, affinity labelling): 2×10^5 times the molar concentration of ^125I-TGFβ1
